Assay results as given in the OligoGym collection.
HELM strings list units from the 5' end as sugar, base in round brackets, then linkage (d deoxyribose, r ribose, m 2'-O-methyl, p phosphodiester). Strings are as the collection lists them; they lack the last nucleoside at the 3' end of the tested compound. [moe] = 2'-O-(2-methoxyethyl) (MOE); [sp] = phosphorothioate linkage; [m5C] = 5-methylcytosine

Target: SCN2A
Assay: mouse, dose not given
Details: ASO

Substance	3 h FOB score [score 0-7]
RNA1{[moe]([m5C])[sp].[moe]([m5C])p.[moe](A)p.[moe]([m5C])p.[moe](G)p.d(A)[sp].d([m5C])[sp].d(A)[sp].d(T)[sp].d(A)[sp].d(T)[sp].d(T)[sp].d(T)[sp].d(T)[sp].d(T)[sp].[moe]([m5C])p.[moe](T)p.[moe](A)[sp].[moe]([m5C])}$$$$ (last 3' nucleoside missing)	0
RNA1{[moe](G)[sp].[moe](A)p.[moe](G)p.[moe](A)p.[moe](G)p.d(A)[sp].d(T)[sp].d(T)[sp].d(G)[sp].d([m5C])[sp].d(T)[sp].d(T)[sp].d(T)[sp].d([m5C])[sp].d([m5C])[sp].[moe]([m5C])p.[moe](T)p.[moe](T)[sp].[moe](T)}$$$$ (last 3' nucleoside missing)	1.33
RNA1{[moe](T)[sp].[moe]([m5C])p.[moe](T)p.[moe]([m5C])p.[moe](T)p.d(T)[sp].d(T)[sp].d([m5C])[sp].d(T)[sp].d(T)[sp].d(A)[sp].d(T)[sp].d(T)[sp].d(T)[sp].d([m5C])[sp].[moe](T)p.[moe](G)p.[moe](T)[sp].[moe](T)}$$$$ (last 3' nucleoside missing)	0
RNA1{[moe](T)[sp].[moe]([m5C])p.[moe](T)p.[moe]([m5C])p.d(T)[sp].d(T)[sp].d(T)[sp].d([m5C])[sp].d(T)[sp].d(T)[sp].d(A)[sp].d(T)[sp].d(T)[sp].d(T)[sp].[moe]([m5C])p.[moe](T)p.[moe](G)p.[moe](T)[sp].[moe](T)}$$$$ (last 3' nucleoside missing)	0
RNA1{[moe](G)[sp].[moe](A)p.[moe]([m5C])p.[moe](A)p.d(T)[sp].d(A)[sp].d(T)[sp].d(T)[sp].d(T)[sp].d(T)[sp].d(T)[sp].d([m5C])[sp].d(T)[sp].d(A)[sp].[moe]([m5C])p.[moe](A)p.[moe]([m5C])p.[moe](T)[sp].[moe](G)}$$$$ (last 3' nucleoside missing)	1
RNA1{[moe](A)[sp].[moe](T)p.[moe](T)p.[moe]([m5C])p.[moe](T)p.d(G)[sp].d([m5C])[sp].d(A)[sp].d(T)[sp].d(G)[sp].d(T)[sp].d(A)[sp].d(A)[sp].d([m5C])[sp].d([m5C])[sp].[moe](T)p.[moe](T)p.[moe](T)[sp].[moe](A)}$$$$ (last 3' nucleoside missing)	3
RNA1{[moe](A)[sp].[moe]([m5C])p.[moe]([m5C])p.[moe]([m5C])p.[moe](A)[sp].d(G)[sp].d(T)[sp].d(T)[sp].d(T)[sp].d(T)[sp].d(T)[sp].d(T)[sp].d([m5C])[sp].[moe](A)p.[moe](T)p.[moe](T)[sp].[moe](G)}$$$$ (last 3' nucleoside missing)	1.33
RNA1{[moe]([m5C])[sp].[moe](A)p.[moe]([m5C])p.[moe](G)p.[moe]([m5C])p.[moe](T)p.d(T)[sp].d(A)[sp].d([m5C])[sp].d(A)[sp].d(T)[sp].d([m5C])[sp].d(A)[sp].d(A)[sp].d(A)[sp].d([m5C])[sp].[moe](A)p.[moe](T)[sp].[moe]([m5C])}$$$$ (last 3' nucleoside missing)	0
RNA1{[moe](A)[sp].[moe]([m5C])p.[moe](G)p.[moe](A)p.[moe]([m5C])p.[moe](A)p.d(T)[sp].d(A)[sp].d(T)[sp].d(T)[sp].d(T)[sp].d(T)[sp].d(T)[sp].d([m5C])[sp].d(T)[sp].d(A)[sp].[moe]([m5C])p.[moe](A)[sp].[moe]([m5C])}$$$$ (last 3' nucleoside missing)	0
RNA1{[moe]([m5C])[sp].[moe](A)p.[moe](T)p.[moe](G)[sp].d(T)[sp].d(A)[sp].d(A)[sp].d([m5C])[sp].d([m5C])[sp].d(T)[sp].d(T)[sp].d(T)[sp].[moe](A)p.[moe](T)p.[moe](A)p.[moe]([m5C])[sp].[moe](A)}$$$$ (last 3' nucleoside missing)	0
RNA1{[moe]([m5C])[sp].[moe]([m5C])p.[moe](A)p.[moe]([m5C])p.[moe](G)p.d([m5C])[sp].d(T)[sp].d(T)[sp].d(A)[sp].d([m5C])[sp].d(A)[sp].d(T)[sp].d([m5C])[sp].d(A)[sp].d(A)[sp].[moe](A)p.[moe]([m5C])p.[moe](A)[sp].[moe](T)}$$$$ (last 3' nucleoside missing)	0
RNA1{[moe]([m5C])[sp].[moe](A)p.[moe](T)p.[moe](T)p.[moe](T)p.d([m5C])[sp].d(T)[sp].d(A)[sp].d(T)[sp].d(A)[sp].d(A)[sp].d([m5C])[sp].d(T)[sp].d([m5C])[sp].d(A)[sp].[moe](G)p.[moe]([m5C])p.[moe](A)[sp].[moe](A)}$$$$ (last 3' nucleoside missing)	0
RNA1{[moe](T)[sp].[moe](A)p.[moe](T)p.[moe](T)p.d(T)[sp].d(T)[sp].d(T)[sp].d([m5C])[sp].d(T)[sp].d(A)[sp].d([m5C])[sp].d(A)[sp].d([m5C])[sp].d(T)[sp].[moe](G)p.[moe]([m5C])p.[moe](T)p.[moe](G)[sp].[moe]([m5C])}$$$$ (last 3' nucleoside missing)	0
RNA1{[moe](G)[sp].[moe](A)p.[moe]([m5C])p.[moe]([m5C])p.[moe](G)p.[moe](T)p.d([m5C])[sp].d(T)[sp].d([m5C])[sp].d(T)[sp].d(T)[sp].d(T)[sp].d([m5C])[sp].d(T)[sp].d(T)[sp].d(A)[sp].[moe](T)p.[moe](T)[sp].[moe](T)}$$$$ (last 3' nucleoside missing)	0
RNA1{[moe]([m5C])[sp].[moe](A)p.[moe](T)p.[moe](G)p.[moe](T)p.d(A)[sp].d(A)[sp].d(T)[sp].d([m5C])[sp].d(A)[sp].d([m5C])[sp].d(T)[sp].d(T)[sp].d(T)[sp].d([m5C])[sp].[moe](A)p.[moe](T)p.[moe]([m5C])[sp].[moe]([m5C])}$$$$ (last 3' nucleoside missing)	0
RNA1{[moe](A)[sp].[moe](T)p.[moe](T)p.[moe](T)p.d([m5C])[sp].d(T)[sp].d(A)[sp].d(T)[sp].d(A)[sp].d(A)[sp].d([m5C])[sp].d(T)[sp].d([m5C])[sp].d(A)[sp].[moe](G)p.[moe]([m5C])p.[moe](A)p.[moe](A)[sp].[moe]([m5C])}$$$$ (last 3' nucleoside missing)	0
RNA1{[moe](A)[sp].[moe](T)p.[moe](G)p.[moe]([m5C])p.[moe](A)p.[moe](T)p.d(A)[sp].d(A)[sp].d(T)[sp].d([m5C])[sp].d([m5C])[sp].d([m5C])[sp].d(A)[sp].d(T)[sp].d(T)[sp].d(A)[sp].[moe](T)p.[moe](A)[sp].[moe]([m5C])}$$$$ (last 3' nucleoside missing)	0
RNA1{[moe](G)[sp].[moe](A)p.[moe](A)p.[moe](T)p.[moe](T)p.[moe]([m5C])p.d(T)[sp].d(A)[sp].d(T)[sp].d(T)[sp].d(T)[sp].d(T)[sp].d(A)[sp].d(T)[sp].d(A)[sp].d(A)[sp].[moe](A)p.[moe](T)[sp].[moe](G)}$$$$ (last 3' nucleoside missing)	1
RNA1{[moe]([m5C])[sp].[moe](T)p.[moe](G)p.[moe]([m5C])p.[moe](A)[sp].d(T)[sp].d(G)[sp].d(T)[sp].d(A)[sp].d(A)[sp].d([m5C])[sp].d([m5C])[sp].d(T)[sp].[moe](T)p.[moe](T)p.[moe](A)[sp].[moe](T)}$$$$ (last 3' nucleoside missing)	0.5
RNA1{[moe]([m5C])[sp].[moe](T)p.[moe](G)p.[moe](G)p.[moe](A)p.d([m5C])[sp].d([m5C])[sp].d(G)[sp].d(T)[sp].d([m5C])[sp].d(T)[sp].d([m5C])[sp].d(T)[sp].d(T)[sp].d(T)[sp].[moe]([m5C])p.[moe](T)p.[moe](T)[sp].[moe](A)}$$$$ (last 3' nucleoside missing)	1
RNA1{[moe](A)[sp].[moe](T)p.[moe](T)p.[moe](T)p.[moe]([m5C])p.d(T)[sp].d(A)[sp].d(T)[sp].d(A)[sp].d(A)[sp].d([m5C])[sp].d(T)[sp].d([m5C])[sp].d(A)[sp].d(G)[sp].[moe]([m5C])p.[moe](A)p.[moe](A)[sp].[moe]([m5C])}$$$$ (last 3' nucleoside missing)	0
RNA1{[moe]([m5C])[sp].[moe](A)p.[moe](G)p.[moe](T)p.d(T)[sp].d(T)[sp].d(T)[sp].d(T)[sp].d(T)[sp].d([m5C])[sp].d(A)[sp].d(T)[sp].d(T)[sp].d(G)[sp].[moe]([m5C])p.[moe](A)p.[moe](T)p.[moe]([m5C])[sp].[moe]([m5C])}$$$$ (last 3' nucleoside missing)	2
RNA1{[moe](A)[sp].[moe](T)p.[moe](A)p.[moe](T)p.d(T)[sp].d(T)[sp].d(T)[sp].d(T)[sp].d([m5C])[sp].d(T)[sp].d(A)[sp].d([m5C])[sp].d(A)[sp].d([m5C])[sp].[moe](T)p.[moe](G)p.[moe]([m5C])p.[moe](T)[sp].[moe](G)}$$$$ (last 3' nucleoside missing)	1
RNA1{[moe](G)[sp].[moe](T)p.[moe](A)p.[moe](A)p.[moe]([m5C])p.d([m5C])[sp].d(T)[sp].d(T)[sp].d(T)[sp].d(A)[sp].d(T)[sp].d(A)[sp].d([m5C])[sp].d(A)[sp].d(T)[sp].[moe](T)p.[moe](T)p.[moe](A)[sp].[moe](A)}$$$$ (last 3' nucleoside missing)	0.33
RNA1{[moe](G)[sp].[moe]([m5C])p.[moe](A)p.[moe](T)p.[moe](G)p.[moe](T)p.d(T)[sp].d(T)[sp].d(A)[sp].d(T)[sp].d([m5C])[sp].d(T)[sp].d(T)[sp].d(A)[sp].d(G)[sp].d(T)[sp].[moe](T)p.[moe]([m5C])[sp].[moe](T)}$$$$ (last 3' nucleoside missing)	1.67
RNA1{[moe](T)[sp].[moe](T)p.[moe]([m5C])p.[moe](T)p.[moe](A)p.d(T)[sp].d(T)[sp].d(T)[sp].d(T)[sp].d(A)[sp].d(T)[sp].d(A)[sp].d(A)[sp].d(A)[sp].d(T)[sp].[moe](G)p.[moe]([m5C])p.[moe]([m5C])[sp].[moe](G)}$$$$ (last 3' nucleoside missing)	0
